# Test results from patent publication US20220347144A1, “COMPOSITIONS AND METHODS FOR PREVENTING AND/OR REDUCING WEIGHT GAIN AND ASSOCIATED CONDITIONS” (University of Virginia Patent Foundation, priority 2019, published 2022).
# What was measured:
# Type in all cases: in vivo, mouse
# C57Bl/6J mice [1] = experiment: Body composition (EchoMRI)
# Protocol: (§1) Animals. Animal experiments were approved by the Animal Care and Use Committee of the University of Virginia (Charlottesville, Va., United States of America). C57Bl/6J mice were obtained from Jackson Laboratories (Bar Harbor, Me., United States of America). Mice were group housed in standard cages with up to five mice per cage with a 12 hour dark/light cycle. All mice were weighed once per week. Weekly food consumption was measured, with the amount consumed per cage averaged amongst the mice in the cage. Body composition was determined by use of an ECHOMRI™-100H Body Composition Analyzer (EchoMRI LLC, Houston, Tex., United States of America).
# (§2) Diets. Diets were obtained from Research Diets (New Brunswick, N.J., United States of America). The low fat chow was D12450Ji (10 kcal % fat) and the high fat chow was D12492 (60 kcal % fat). These two chows were reformulated by replacing a portion of dietary fat with an ethyl ester of nervonic acid from Nu-Chek Prep (Elysian, Minn., United States of America) to produce isocaloric diets with nervonic acid at 6 g per kg of diet (0.6%). For the three most prevalent fatty acids in these diets: C16 comprised 14.4%, 11.7%, 18.5%, and 18.1%; C18:1 comprised 27.4%, 22.8%, 32%, and 31.4%; and C18:2 comprised 39.6%, 36.2%, 26.9%, and 26.5% of the fatty acid composition of the Cnt, Cnt+NA, HFD, and HFD+NA diets, respectively. Mice were started on diets at ˜8 weeks of age and given ad libitum access.
# PGC1α = experiment: Liver transcript analysis by qRT-PCR; settings: HFD+NA
# Protocol: (§3) Transcript analysis. RNA was isolated from mouse liver by manual homogenization in TRIzol reagent (Invitrogen, Carlsbad, Calif., United States of America) following the manufacturer's instructions. Total RNA underwent DNase I treatment (New England Biolabs, Ipswich, Mass., United States of America) and cDNA was made using the ISCRIPT™ brand cDNA Synthesis Kit (Bio-Rad Laboratories, Hercules, Calif., United States of America). Quantitative real-time PCR was carried out using Bio-Rad SYBR® green probes (PPARα Bio-Rad Assay ID qMmuCID0005156; SIRT1 Bio-Rad Assay ID qMmuCID0015511; PGC1α Bio-Rad Assay ID qMmuCID0006032). The TATA binding protein (Bio-Rad Assay ID qMmuCID0040542) gene was used to normalize target gene abundance. Biological samples were run in triplicate.
# PPARα = experiment: Liver transcript analysis by qRT-PCR; settings: HFD+NA
# Protocol: as §3
# SIRT1 = experiment: Liver transcript analysis by qRT-PCR; settings: HFD+NA
# Protocol: as §3
# C57Bl/6J mice [2] = experiment: Observation of overt toxicities in animals fed a NA-enriched diet
# C57Bl/6J mice [3] = experiment: Fasting and random-fed blood glucose; settings: for fasting blood glucose / random-fed blood glucose: HFD+NA versus HFD, 8 weeks on diets
# Protocol: (§4) Insulin Tolerance Test (ITT) and Glucose Tolerance Test (GTT) and analysis of blood glucose and plasma insulin. ITT and GTT were performed as described in Lansey et al., 2012. Briefly, for ITT, random-fed mice were given an intraperitoneal injection (IP) of insulin (0.75 U/kg in 0.9% NaCl). Blood glucose levels were determined by a glucometer (Contour Next EZ Blood Glucose Monitoring System, Bayer, Leverkusen, Germany) at the indicated time points after injection. For GTT, mice were fasted for 16 hours prior to testing. D-Glucose, prepared the day before, was administered via an IP injection (1 g/kg), and blood glucose levels were determined by a glucometer at the indicated time points after injection. Plasma insulin levels were determined using a STELLUX® brand Chemi Rodent Insulin ELISA kit (Cat. No. 80-INSMR-CHO1; APLCO, Salem, N.H., United States of America) or an Ultrasensitive Rat/Mouse Insulin ELISA kit, Low Range Assay (Cat. No. 90060; Crystal Chem, Downers Grove, Ill., United States of America). The luminescence assay was conducted using a VICTOR2 Plate Reader (Perkin Elmer, Waltham, Mass., United States of America).
# C57Bl/6J mice [4] = experiment: Plasma insulin (fasting and after IP glucose); settings: for fasting (basal) plasma insulin levels: HFD+NA versus HFD; for fasting (basal) plasma insulin levels / fasting plasma insulin levels: 8 weeks; for increase in insulin after intraperitoneal administration of glucose: HFD+NA, 30 min after IP glucose; for fasting plasma insulin levels: control diet with NA
# Protocol: as §4
# For assessment of insulin, blood was collected with heparinized capillary tubes and subsequently centrifuged to obtain plasma. Insulin levels was then determined using a STELLUX® Chemi Rodent Insulin ELISA kit (Catalog No. 80-INSMR-CHO1, APLCO, Salem, N.H., United States of America) or an Ultrasensitive Rat/Mouse Insulin ELISA kit low range (Cat. No 90060; Crystal Chem, Downers Grove, Ill., United States of America). The luminescence assay was conducted using a VICTOR2 Plate Reader (Perkin Elmer, Waltham, Mass., United States of America).
# C57Bl/6J mice [5] = experiment: Liver ceramide and lipid composition by LC-MS/MS in mice on control or high fat diets with or without nervonic acid
# Protocol: as §1, §2
# Sphingolipid and acylcarnitine measurements by liquid chromatography-mass spectrometry. Sphingolipids were analyzed as described previously (Wijesinghe et al., 2010) for FIG. 1B or with modifications described herein. Liver samples from rats fed a low or high fat diet were obtained from Scot Kimball's laboratory at the Pennsylvania State University (Hershey, Pa.). Mouse liver samples were analyzed with modifications as described previously (Pearson et al., 2020). For FIGS. 1A and 5D, liver homogenates were subjected to lipid extraction and subjected to liquid chromatography-electrospray ionization mass spectrometry was performed on an I-class Acquity with a 2.1 mm×10 cm C18 CSH […] particle size column coupled to an in-line TQ-S mass spectrometer from Waters Corporation (Milford, Mass., United States of America).
substance,measurement,setting,value
(Z)-tetracos-15-enoic acid [NA],average body fat content,C57Bl/6J mice [1]; HFD+NA fed animals at the time of sacrifice (HFD: 16.44 g/mouse),9.48 g/mouse
same,fat mass,C57Bl/6J mice [1]; HFD+NA versus HFD,reduction in fat mass
same,lean mass,C57Bl/6J mice [1]; HFD+NA versus HFD,"slightly, but significantly, reduced"
same,lean mass,C57Bl/6J mice [1]; HFD+NA versus control or control+NA groups,not significantly different
same,water mass,C57Bl/6J mice [1]; all experimental groups,similar
same,lean mass,C57Bl/6J mice [1]; control+NA versus control,not significantly different
same,PGC1α mRNA levels in liver,PGC1α,restored
same,PPARα mRNA levels in liver,PPARα,increased
same,SIRT1 mRNA levels in liver,SIRT1,restored
same,"overt toxicities (ruffled fur, anorexia, cachexia, skin tenting, skin ulcerations, diarrhea, death)",C57Bl/6J mice [2],No overt toxicities
same,fasting blood glucose,C57Bl/6J mice [3],significant reductions
same,random-fed blood glucose,C57Bl/6J mice [3],significant reductions
same,fasting blood glucose,C57Bl/6J mice [3]; listed as nervonic acid,significant reduction
same,random-fed blood glucose,C57Bl/6J mice [3]; listed as nervonic acid,significant reduction
same,blood glucose levels,"C57Bl/6J mice [3]; HFD+NA versus control diet, random fed or fasted",not significantly different
same,blood glucose levels,C57Bl/6J mice [3]; control with NA diet versus control,No significant differences
same,fasting (basal) plasma insulin levels,C57Bl/6J mice [4],significantly reduced
same,fasting (basal) plasma insulin levels,C57Bl/6J mice [4]; listed as nervonic acid,reduced insulin levels
same,increase in insulin after intraperitoneal administration of glucose,C57Bl/6J mice [4],no such increase
same,increase in insulin after intraperitoneal administration of glucose,C57Bl/6J mice [4]; listed as nervonic acid,not observed
same,fasting plasma insulin levels,C57Bl/6J mice [4],did not affect insulin levels
same,fasting plasma insulin levels,C57Bl/6J mice [4]; listed as nervonic acid,did not influence insulin levels
same,hepatic C20 and C22-ceramides,"C57Bl/6J mice [5]; HFD-fed mice, NA-supplemented diet",back to control levels
same,C24:1-lysophosphatidylcholine in liver,C57Bl/6J mice [5]; NA-enriched control and HFDs,elevated
same,diacylglyceride C16:0/C24:1 in liver,C57Bl/6J mice [5]; NA-enriched control and HFDs,elevated
same,diacylglyceride C18:0/C24:1 in liver,C57Bl/6J mice [5]; NA-enriched control and HFDs,elevated
same,diacylglyceride C18:1/C24:1 in liver,C57Bl/6J mice [5]; NA-enriched control and HFDs,elevated
same,diacylglyceride C18:2/C24:1 in liver,C57Bl/6J mice [5]; NA-enriched control and HFDs,elevated
same,total amounts of ceramides in liver,C57Bl/6J mice [5]; between diet groups with and without NA,consistent between diet groups
same,C24:1-hexosylceramide in liver,"C57Bl/6J mice [5]; both diets, NA 0.6%",increasing
same,C24:1-sphingomyelin in liver,"C57Bl/6J mice [5]; both diets, NA 0.6%",increasing
same,other ceramides C20-C26 in liver,"C57Bl/6J mice [5]; normal and HFD fed groups, NA 0.6% by diet weight",concomitant decreases
same,C24:1-ceramides in liver,"C57Bl/6J mice [5]; normal and HFD fed groups, ethyl ester of NA 0.6% by diet weight",increases
